{"source": "the NIST ThermoML archive (doi:10.1016/j.fluid.2009.07.002)", "assay": "xn = mol fraction of the nth substance listed", "conditions": "101 kPa, Liquid, Taylor dispersion method", "data": [{"smiles": "OCCOCCO", "note": "[diethylene glycol] + O", "values": [{"measurement": "binary diffusion coefficient", "setting": "303.2 K, x1 = 0", "result": "1.04e-09", "unit": "m2/s"}, {"measurement": "binary diffusion coefficient", "setting": "303.2 K, x1 = 0.2", "result": "4.69e-10", "unit": "m2/s"}, {"measurement": "binary diffusion coefficient", "setting": "303.2 K, x1 = 0.4", "result": "3.18e-10", "unit": "m2/s"}, {"measurement": "binary diffusion coefficient", "setting": "303.2 K, x1 = 0.6", "result": "2.82e-10", "unit": "m2/s"}, {"measurement": "binary diffusion coefficient", "setting": "303.2 K, x1 = 0.8", "result": "2.56e-10", "unit": "m2/s"}, {"measurement": "binary diffusion coefficient", "setting": "308.2 K, x1 = 0", "result": "1.13e-09", "unit": "m2/s"}, {"measurement": "binary diffusion coefficient", "setting": "308.2 K, x1 = 0.2", "result": "5.24e-10", "unit": "m2/s"}, {"measurement": "binary diffusion coefficient", "setting": "308.2 K, x1 = 0.4", "result": "3.75e-10", "unit": "m2/s"}, {"measurement": "binary diffusion coefficient", "setting": "308.2 K, x1 = 0.6", "result": "3.29e-10", "unit": "m2/s"}, {"measurement": "binary diffusion coefficient", "setting": "308.2 K, x1 = 0.8", "result": "3.06e-10", "unit": "m2/s"}, {"measurement": "binary diffusion coefficient", "setting": "313.2 K, x1 = 0", "result": "1.25e-09", "unit": "m2/s"}, {"measurement": "binary diffusion coefficient", "setting": "313.2 K, x1 = 0.2", "result": "6.02e-10", "unit": "m2/s"}, {"measurement": "binary diffusion coefficient", "setting": "313.2 K, x1 = 0.4", "result": "4.45e-10", "unit": "m2/s"}, {"measurement": "binary diffusion coefficient", "setting": "313.2 K, x1 = 0.6", "result": "3.93e-10", "unit": "m2/s"}, {"measurement": "binary diffusion coefficient", "setting": "313.2 K, x1 = 0.8", "result": "3.72e-10", "unit": "m2/s"}, {"measurement": "binary diffusion coefficient", "setting": "318.2 K, x1 = 0", "result": "1.41e-09", "unit": "m2/s"}, {"measurement": "binary diffusion coefficient", "setting": "318.2 K, x1 = 0.2", "result": "7.01e-10", "unit": "m2/s"}, {"measurement": "binary diffusion coefficient", "setting": "318.2 K, x1 = 0.4", "result": "5.16e-10", "unit": "m2/s"}, {"measurement": "binary diffusion coefficient", "setting": "318.2 K, x1 = 0.6", "result": "4.6e-10", "unit": "m2/s"}, {"measurement": "binary diffusion coefficient", "setting": "318.2 K, x1 = 0.8", "result": "4.3e-10", "unit": "m2/s"}, {"measurement": "binary diffusion coefficient", "setting": "323.2 K, x1 = 0", "result": "1.53e-09", "unit": "m2/s"}, {"measurement": "binary diffusion coefficient", "setting": "323.2 K, x1 = 0.2", "result": "7.83e-10", "unit": "m2/s"}, {"measurement": "binary diffusion coefficient", "setting": "323.2 K, x1 = 0.4", "result": "5.71e-10", "unit": "m2/s"}, {"measurement": "binary diffusion coefficient", "setting": "323.2 K, x1 = 0.6", "result": "5.37e-10", "unit": "m2/s"}, {"measurement": "binary diffusion coefficient", "setting": "323.2 K, x1 = 0.8", "result": "5.03e-10", "unit": "m2/s"}]}, {"smiles": "OCCO", "note": "[1,2-ethanediol] + O", "values": [{"measurement": "binary diffusion coefficient", "setting": "298.2 K, x1 = 0", "result": "1.1e-09", "unit": "m2/s"}, {"measurement": "binary diffusion coefficient", "setting": "298.2 K, x1 = 0.2", "result": "6.95e-10", "unit": "m2/s"}, {"measurement": "binary diffusion coefficient", "setting": "298.2 K, x1 = 0.4", "result": "4.82e-10", "unit": "m2/s"}, {"measurement": "binary diffusion coefficient", "setting": "298.2 K, x1 = 0.6", "result": "3.81e-10", "unit": "m2/s"}, {"measurement": "binary diffusion coefficient", "setting": "298.2 K, x1 = 0.8", "result": "3.18e-10", "unit": "m2/s"}, {"measurement": "binary diffusion coefficient", "setting": "303.2 K, x1 = 0", "result": "1.24e-09", "unit": "m2/s"}, {"measurement": "binary diffusion coefficient", "setting": "303.2 K, x1 = 0.2", "result": "8.14e-10", "unit": "m2/s"}, {"measurement": "binary diffusion coefficient", "setting": "303.2 K, x1 = 0.4", "result": "5.28e-10", "unit": "m2/s"}, {"measurement": "binary diffusion coefficient", "setting": "303.2 K, x1 = 0.6", "result": "4.02e-10", "unit": "m2/s"}, {"measurement": "binary diffusion coefficient", "setting": "303.2 K, x1 = 0.8", "result": "3.34e-10", "unit": "m2/s"}, {"measurement": "binary diffusion coefficient", "setting": "308.2 K, x1 = 0", "result": "1.38e-09", "unit": "m2/s"}, {"measurement": "binary diffusion coefficient", "setting": "308.2 K, x1 = 0.2", "result": "8.89e-10", "unit": "m2/s"}, {"measurement": "binary diffusion coefficient", "setting": "308.2 K, x1 = 0.4", "result": "5.8e-10", "unit": "m2/s"}, {"measurement": "binary diffusion coefficient", "setting": "308.2 K, x1 = 0.6", "result": "4.51e-10", "unit": "m2/s"}, {"measurement": "binary diffusion coefficient", "setting": "308.2 K, x1 = 0.8", "result": "4.05e-10", "unit": "m2/s"}, {"measurement": "binary diffusion coefficient", "setting": "313.2 K, x1 = 0", "result": "1.51e-09", "unit": "m2/s"}, {"measurement": "binary diffusion coefficient", "setting": "313.2 K, x1 = 0.2", "result": "9.8e-10", "unit": "m2/s"}, {"measurement": "binary diffusion coefficient", "setting": "313.2 K, x1 = 0.4", "result": "6.31e-10", "unit": "m2/s"}, {"measurement": "binary diffusion coefficient", "setting": "313.2 K, x1 = 0.6", "result": "5.18e-10", "unit": "m2/s"}, {"measurement": "binary diffusion coefficient", "setting": "313.2 K, x1 = 0.8", "result": "4.68e-10", "unit": "m2/s"}, {"measurement": "binary diffusion coefficient", "setting": "318.2 K, x1 = 0", "result": "1.68e-09", "unit": "m2/s"}, {"measurement": "binary diffusion coefficient", "setting": "318.2 K, x1 = 0.2", "result": "1.09e-09", "unit": "m2/s"}, {"measurement": "binary diffusion coefficient", "setting": "318.2 K, x1 = 0.4", "result": "7.57e-10", "unit": "m2/s"}, {"measurement": "binary diffusion coefficient", "setting": "318.2 K, x1 = 0.6", "result": "6e-10", "unit": "m2/s"}, {"measurement": "binary diffusion coefficient", "setting": "318.2 K, x1 = 0.8", "result": "5.24e-10", "unit": "m2/s"}, {"measurement": "binary diffusion coefficient", "setting": "323.2 K, x1 = 0", "result": "1.86e-09", "unit": "m2/s"}, {"measurement": "binary diffusion coefficient", "setting": "323.2 K, x1 = 0.2", "result": "1.19e-09", "unit": "m2/s"}, {"measurement": "binary diffusion coefficient", "setting": "323.2 K, x1 = 0.4", "result": "8.48e-10", "unit": "m2/s"}, {"measurement": "binary diffusion coefficient", "setting": "323.2 K, x1 = 0.6", "result": "6.88e-10", "unit": "m2/s"}, {"measurement": "binary diffusion coefficient", "setting": "323.2 K, x1 = 0.8", "result": "6.03e-10", "unit": "m2/s"}]}, {"smiles": "OCCOCCOCCO", "note": "[triethylene glycol] + O", "values": [{"measurement": "binary diffusion coefficient", "setting": "303.2 K, x1 = 0", "result": "8.15e-10", "unit": "m2/s"}, {"measurement": "binary diffusion coefficient", "setting": "303.2 K, x1 = 0.2", "result": "3.71e-10", "unit": "m2/s"}, {"measurement": "binary diffusion coefficient", "setting": "303.2 K, x1 = 0.4", "result": "2.78e-10", "unit": "m2/s"}, {"measurement": "binary diffusion coefficient", "setting": "303.2 K, x1 = 0.6", "result": "2.33e-10", "unit": "m2/s"}, {"measurement": "binary diffusion coefficient", "setting": "303.2 K, x1 = 0.8", "result": "2.01e-10", "unit": "m2/s"}, {"measurement": "binary diffusion coefficient", "setting": "308.2 K, x1 = 0", "result": "8.99e-10", "unit": "m2/s"}, {"measurement": "binary diffusion coefficient", "setting": "308.2 K, x1 = 0.2", "result": "4.3e-10", "unit": "m2/s"}, {"measurement": "binary diffusion coefficient", "setting": "308.2 K, x1 = 0.4", "result": "3.12e-10", "unit": "m2/s"}, {"measurement": "binary diffusion coefficient", "setting": "308.2 K, x1 = 0.6", "result": "2.7e-10", "unit": "m2/s"}, {"measurement": "binary diffusion coefficient", "setting": "308.2 K, x1 = 0.8", "result": "2.41e-10", "unit": "m2/s"}, {"measurement": "binary diffusion coefficient", "setting": "313.2 K, x1 = 0", "result": "9.94e-10", "unit": "m2/s"}, {"measurement": "binary diffusion coefficient", "setting": "313.2 K, x1 = 0.2", "result": "5.1e-10", "unit": "m2/s"}, {"measurement": "binary diffusion coefficient", "setting": "313.2 K, x1 = 0.4", "result": "3.7e-10", "unit": "m2/s"}, {"measurement": "binary diffusion coefficient", "setting": "313.2 K, x1 = 0.6", "result": "3.25e-10", "unit": "m2/s"}, {"measurement": "binary diffusion coefficient", "setting": "313.2 K, x1 = 0.8", "result": "2.98e-10", "unit": "m2/s"}, {"measurement": "binary diffusion coefficient", "setting": "318.2 K, x1 = 0", "result": "1.07e-09", "unit": "m2/s"}, {"measurement": "binary diffusion coefficient", "setting": "318.2 K, x1 = 0.2", "result": "5.48e-10", "unit": "m2/s"}, {"measurement": "binary diffusion coefficient", "setting": "318.2 K, x1 = 0.4", "result": "4.27e-10", "unit": "m2/s"}, {"measurement": "binary diffusion coefficient", "setting": "318.2 K, x1 = 0.6", "result": "3.79e-10", "unit": "m2/s"}, {"measurement": "binary diffusion coefficient", "setting": "318.2 K, x1 = 0.8", "result": "3.51e-10", "unit": "m2/s"}, {"measurement": "binary diffusion coefficient", "setting": "323.2 K, x1 = 0", "result": "1.18e-09", "unit": "m2/s"}, {"measurement": "binary diffusion coefficient", "setting": "323.2 K, x1 = 0.2", "result": "6.3e-10", "unit": "m2/s"}, {"measurement": "binary diffusion coefficient", "setting": "323.2 K, x1 = 0.4", "result": "4.8e-10", "unit": "m2/s"}, {"measurement": "binary diffusion coefficient", "setting": "323.2 K, x1 = 0.6", "result": "4.44e-10", "unit": "m2/s"}, {"measurement": "binary diffusion coefficient", "setting": "323.2 K, x1 = 0.8", "result": "4.15e-10", "unit": "m2/s"}]}]}
